These are literature values, as cited in US5212175A, “Benzothiophenyl benzothiophenylalkyl-N-terminal amino hydroxy β-amino acid derivatives” (G. D. Searle & Co., priority 1991, dated 1993).

Molecules are shown by their SMILES. Square brackets hold non-standard residues; d marks the D form. Peptide text beside a SMILES is read from it. * marks the point of attachment. Sta = CC(C)C[C@H](N)[C@@H](O)CC(=O)O; Isovaleryl = CC(C)CC(=O)*

Data set [1] concerns pepsin. The conditions noted are these: Umezawa et al, J. Antibiot. 1970.
Data set [2] relates to cathepsin D. The conditions noted are these: Umezawa et al, J. Antibiot. 1970.
In data set [3] the test system is renin. To be noted: Umezawa et al, J. Antibiot. 1970.
The subject of data set [4] is hog renin. To be noted: after the injection of hog renin into nephrectomized rats; Gross et al, Science 1971.
For data set [5] the following is noted: stated in words as a disadvantage.

Consider `CC(C)CC(=O)N[C@H](C(=O)N[C@H](C(=O)N[C@@H](CC(C)C)[C@@H](O)CC(=O)N[C@@H](C)C(=O)N[C@@H](CC(C)C)[C@@H](O)CC(=O)O)C(C)C)C(C)C` [pepstatin] (Isovaleryl-VV[Sta]A[Sta]-OH), for which the inhibitor of pepsin result in data set [1] was “inhibitor”. In addition, in data set [2], the “inhibitor of cathepsin D” value is “inhibitor”. In addition, the inhibitor of renin entry in data set [3] was “inhibitor”. Moreover, in data set [4], the “reduce blood pressure in vivo” value was “reduce blood pressure”. Besides, the solubility result in data set [5] is listed as “low solubility”.
